ChEMBL document CHEMBL5463727, “Data for DCP probe SGK3-PROTAC1” (2023)

Experiments:
[1] = molecular target: Serine/threonine-protein kinase Chk1 (Homo sapiens) (UniProt O14757); assay: % Activity remaining of CHK1 in the Dundee kinase panel at 1.0 µM; settings: Compound concentration 1.0 uM
[2] = molecular target: Homeodomain-interacting protein kinase 1 (Homo sapiens) (UniProt Q86Z02); assay: % Activity remaining of HIPK1 in the Dundee kinase panel at 1.0 µM; settings: Compound concentration 1.0 uM
[3] = molecular target: Interleukin-1 receptor-associated kinase 4 (Homo sapiens) (UniProt Q9NWZ3); assay: % Activity remaining of IRAK4 in the Dundee kinase panel at 1.0 µM; settings: Compound concentration 1.0 uM
[4] = molecular target: Mitogen-activated protein kinase kinase kinase 1 (Homo sapiens) (UniProt Q13233); assay: % Activity remaining of MEKK1 in the Dundee kinase panel at 1.0 µM; settings: Compound concentration 1.0 uM
[5] = molecular target: Serine/threonine-protein kinase SIK2 (Homo sapiens) (UniProt Q9H0K1); assay: % Activity remaining of SIK2 in the Dundee kinase panel at 1.0 µM; settings: Compound concentration 1.0 uM
[6] = molecular target: 5'-AMP-activated protein kinase catalytic subunit alpha-1 (Homo sapiens) (UniProt Q13131); assay: % Activity remaining of AMPK (hum) in the Dundee kinase panel at 1.0 µM; settings: Compound concentration 1.0 uM
[7] = molecular target: cAMP-dependent protein kinase catalytic subunit alpha (Homo sapiens) (UniProt P17612); assay: % Activity remaining of PKA in the Dundee kinase panel at 1.0 µM; settings: Compound concentration 1.0 uM
[8] = molecular target: Mitogen-activated protein kinase 3 (Homo sapiens) (UniProt P27361); assay: % Activity remaining of ERK1 in the Dundee kinase panel at 1.0 µM; settings: Compound concentration 1.0 uM
[9] = molecular target: Serine/threonine-protein kinase WNK1 (Homo sapiens) (UniProt Q9H4A3); assay: % Activity remaining of WNK1 in the Dundee kinase panel at 1.0 µM; settings: Compound concentration 1.0 uM
[10] = molecular target: Dual specificity protein kinase CLK2 (Homo sapiens) (UniProt P49760); assay: % Activity remaining of CLK2 in the Dundee kinase panel at 1.0 µM; settings: Compound concentration 1.0 uM
[11] = molecular target: Calcium/calmodulin-dependent protein kinase kinase 2 (Homo sapiens) (UniProt Q96RR4); assay: % Activity remaining of CAMKK beta in the Dundee kinase panel at 1.0 µM; settings: Compound concentration 1.0 uM
[12] = molecular target: Protein kinase C gamma type (Homo sapiens) (UniProt P05129); assay: % Activity remaining of PKC gamma in the Dundee kinase panel at 1.0 µM; settings: Compound concentration 1.0 uM
[13] = molecular target: Receptor-interacting serine/threonine-protein kinase 2 (Homo sapiens) (UniProt O43353); assay: % Activity remaining of RIPK2 in the Dundee kinase panel at 1.0 µM; settings: Compound concentration 1.0 uM
[14] = molecular target: Ephrin type-A receptor 2 (Homo sapiens) (UniProt P29317); assay: % Activity remaining of EPH-A2 in the Dundee kinase panel at 1.0 µM; settings: Compound concentration 1.0 uM
[15] = molecular target: Serine/threonine-protein kinase TAO1 (Homo sapiens) (UniProt Q7L7X3); assay: % Activity remaining of TAO1 in the Dundee kinase panel at 1.0 µM; settings: Compound concentration 1.0 uM
[16] = molecular target: Serine/threonine-protein kinase 26 (Homo sapiens) (UniProt Q9P289); assay: % Activity remaining of MST4 in the Dundee kinase panel at 1.0 µM; settings: Compound concentration 1.0 uM
[17] = molecular target: Serine/threonine-protein kinase ULK1 (Homo sapiens) (UniProt O75385); assay: % Activity remaining of ULK1 in the Dundee kinase panel at 1.0 µM; settings: Compound concentration 1.0 uM
[18] = molecular target: Dual specificity tyrosine-phosphorylation-regulated kinase 1A (Homo sapiens) (UniProt Q13627); assay: % Activity remaining of DYRK1A in the Dundee kinase panel at 1.0 µM; settings: Compound concentration 1.0 uM
[19] = molecular target: Tau-tubulin kinase 1 (Homo sapiens) (UniProt Q5TCY1); assay: % Activity remaining of TTBK1 in the Dundee kinase panel at 1.0 µM; settings: Compound concentration 1.0 uM
[20] = molecular target: Aurora kinase A (Homo sapiens) (UniProt O14965); assay: % Activity remaining of Aurora A in the Dundee kinase panel at 1.0 µM; settings: Compound concentration 1.0 uM
[21] = molecular target: Mitogen-activated protein kinase 13 (Homo sapiens) (UniProt O15264); assay: % Activity remaining of p38 delta MAPK in the Dundee kinase panel at 1.0 µM; settings: Compound concentration 1.0 uM
[22] = molecular target: High affinity nerve growth factor receptor (Homo sapiens) (UniProt P04629); assay: % Activity remaining of TrkA in the Dundee kinase panel at 1.0 µM; settings: Compound concentration 1.0 uM
[23] = molecular target: Death-associated protein kinase 1 (Homo sapiens) (UniProt P53355); assay: % Activity remaining of DAPK1 in the Dundee kinase panel at 1.0 µM; settings: Compound concentration 1.0 uM
[24] = molecular target: Serine/threonine-protein kinase STK11 (Homo sapiens) (UniProt Q15831); assay: % Activity remaining of LKB1 in the Dundee kinase panel at 1.0 µM; settings: Compound concentration 1.0 uM
[25] = molecular target: Myosin light chain kinase, smooth muscle (Homo sapiens) (UniProt Q15746); assay: % Activity remaining of SmMLCK in the Dundee kinase panel at 1.0 µM; settings: Compound concentration 1.0 uM
[26] = molecular target: Serine/threonine-protein kinase OSR1 (Homo sapiens) (UniProt O95747); assay: % Activity remaining of OSR1 in the Dundee kinase panel at 1.0 µM; settings: Compound concentration 1.0 uM
[27] = molecular target: Dual specificity mitogen-activated protein kinase kinase 6 (Homo sapiens) (UniProt P52564); assay: % Activity remaining of MKK6 in the Dundee kinase panel at 1.0 µM; settings: Compound concentration 1.0 uM
[28] = molecular target: Ribosomal protein S6 kinase beta-1 (Homo sapiens, UniProt P23443); assay: RPS6KB1 degradation assay; type: functional
[29] = molecular target: Casein kinase I isoform delta (Homo sapiens) (UniProt P48730); assay: % Activity remaining of CK1 delta in the Dundee kinase panel at 1.0 µM; settings: Compound concentration 1.0 uM
[30] = molecular target: T1, Serine/threonine-protein kinase Sgk1 (Homo sapiens) (UniProt O00141); assay: SGK1 degradation assay; type: functional
T1 sequence (whole entry): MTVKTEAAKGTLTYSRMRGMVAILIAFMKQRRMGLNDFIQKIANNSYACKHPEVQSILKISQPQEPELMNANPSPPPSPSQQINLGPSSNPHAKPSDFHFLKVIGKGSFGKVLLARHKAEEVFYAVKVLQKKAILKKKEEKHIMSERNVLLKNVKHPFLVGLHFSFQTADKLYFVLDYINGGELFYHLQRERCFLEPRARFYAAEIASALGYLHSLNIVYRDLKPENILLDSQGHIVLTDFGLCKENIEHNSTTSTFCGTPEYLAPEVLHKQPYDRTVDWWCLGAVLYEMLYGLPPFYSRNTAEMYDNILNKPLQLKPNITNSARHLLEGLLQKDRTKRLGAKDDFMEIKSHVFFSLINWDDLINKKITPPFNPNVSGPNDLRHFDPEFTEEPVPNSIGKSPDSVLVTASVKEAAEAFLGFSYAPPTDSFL

[31] = molecular target: Eukaryotic translation initiation factor 2-alpha kinase 3 (Homo sapiens) (UniProt Q9NZJ5); assay: % Activity remaining of EIF2AK3 in the Dundee kinase panel at 1.0 µM; settings: Compound concentration 1.0 uM
[32] = molecular target: Serine/threonine-protein kinase Sgk3 (Homo sapiens) (UniProt Q96BR1); assay: SGK3 degradation assay at 100 nM (48 h incubation, no effect on RPS6KB1, SGK1 and SGK2); type: functional; design: compound concentration 100 nM
[33] = molecular target: Serine/threonine-protein kinase Chk2 (Homo sapiens) (UniProt O96017); assay: % Activity remaining of CHK2 in the Dundee kinase panel at 1.0 µM; settings: Compound concentration 1.0 uM

Chain of Calcium/calmodulin-dependent protein kinase kinase 2 (Homo sapiens) (Q96RR4 2-588 limits assumed): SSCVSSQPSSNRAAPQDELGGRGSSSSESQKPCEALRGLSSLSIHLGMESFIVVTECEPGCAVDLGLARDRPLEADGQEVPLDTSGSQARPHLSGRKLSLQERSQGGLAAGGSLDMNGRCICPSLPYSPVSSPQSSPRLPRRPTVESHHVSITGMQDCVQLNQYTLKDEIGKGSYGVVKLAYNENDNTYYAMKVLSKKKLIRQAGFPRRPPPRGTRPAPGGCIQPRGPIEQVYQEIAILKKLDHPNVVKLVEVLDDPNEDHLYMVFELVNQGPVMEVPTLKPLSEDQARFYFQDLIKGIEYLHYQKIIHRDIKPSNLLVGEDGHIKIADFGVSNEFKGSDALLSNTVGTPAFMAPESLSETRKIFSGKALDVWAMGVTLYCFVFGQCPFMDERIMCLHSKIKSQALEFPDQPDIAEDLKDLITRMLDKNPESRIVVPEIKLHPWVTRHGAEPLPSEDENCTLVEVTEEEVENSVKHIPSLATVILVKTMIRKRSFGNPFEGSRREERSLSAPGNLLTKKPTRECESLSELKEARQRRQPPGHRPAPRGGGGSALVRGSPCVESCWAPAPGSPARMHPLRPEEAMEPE
Chain of High affinity nerve growth factor receptor (Homo sapiens) (P04629 33-796 limits assumed): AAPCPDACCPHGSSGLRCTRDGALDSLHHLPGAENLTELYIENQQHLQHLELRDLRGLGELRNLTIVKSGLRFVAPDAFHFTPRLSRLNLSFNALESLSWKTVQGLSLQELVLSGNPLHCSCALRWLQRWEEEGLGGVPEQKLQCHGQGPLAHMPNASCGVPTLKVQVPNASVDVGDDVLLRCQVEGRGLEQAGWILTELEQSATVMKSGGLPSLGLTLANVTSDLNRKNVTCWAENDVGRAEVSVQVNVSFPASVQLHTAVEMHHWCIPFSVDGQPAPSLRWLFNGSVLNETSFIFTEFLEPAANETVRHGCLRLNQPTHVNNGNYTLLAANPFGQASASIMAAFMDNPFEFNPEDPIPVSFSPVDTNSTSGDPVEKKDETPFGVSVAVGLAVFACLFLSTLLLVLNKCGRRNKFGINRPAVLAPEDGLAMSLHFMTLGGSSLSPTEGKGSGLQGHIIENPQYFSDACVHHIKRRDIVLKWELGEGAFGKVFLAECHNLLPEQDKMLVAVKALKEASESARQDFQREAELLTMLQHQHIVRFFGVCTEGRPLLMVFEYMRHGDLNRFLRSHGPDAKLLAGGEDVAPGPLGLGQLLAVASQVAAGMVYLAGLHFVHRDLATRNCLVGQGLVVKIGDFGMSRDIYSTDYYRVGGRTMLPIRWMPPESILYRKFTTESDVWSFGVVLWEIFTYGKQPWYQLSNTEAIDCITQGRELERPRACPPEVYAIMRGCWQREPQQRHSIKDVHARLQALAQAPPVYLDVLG
Chain of Dual specificity protein kinase CLK2 (Homo sapiens) (P49760 whole entry, looked up): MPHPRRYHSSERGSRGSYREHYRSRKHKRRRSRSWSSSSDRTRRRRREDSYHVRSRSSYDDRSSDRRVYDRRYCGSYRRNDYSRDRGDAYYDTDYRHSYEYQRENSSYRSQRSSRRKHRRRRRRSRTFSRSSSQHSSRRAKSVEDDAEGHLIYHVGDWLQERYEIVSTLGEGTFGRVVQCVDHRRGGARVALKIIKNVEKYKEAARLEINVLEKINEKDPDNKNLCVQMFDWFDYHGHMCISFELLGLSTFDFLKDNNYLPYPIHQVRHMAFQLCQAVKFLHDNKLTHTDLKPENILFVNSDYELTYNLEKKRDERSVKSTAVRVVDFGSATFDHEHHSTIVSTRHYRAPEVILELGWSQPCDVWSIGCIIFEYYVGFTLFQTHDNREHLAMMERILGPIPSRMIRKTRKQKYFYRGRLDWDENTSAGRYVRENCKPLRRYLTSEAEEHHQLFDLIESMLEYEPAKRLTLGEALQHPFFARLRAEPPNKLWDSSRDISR
Chain of Myosin light chain kinase, smooth muscle (Homo sapiens) (Q15746 whole entry): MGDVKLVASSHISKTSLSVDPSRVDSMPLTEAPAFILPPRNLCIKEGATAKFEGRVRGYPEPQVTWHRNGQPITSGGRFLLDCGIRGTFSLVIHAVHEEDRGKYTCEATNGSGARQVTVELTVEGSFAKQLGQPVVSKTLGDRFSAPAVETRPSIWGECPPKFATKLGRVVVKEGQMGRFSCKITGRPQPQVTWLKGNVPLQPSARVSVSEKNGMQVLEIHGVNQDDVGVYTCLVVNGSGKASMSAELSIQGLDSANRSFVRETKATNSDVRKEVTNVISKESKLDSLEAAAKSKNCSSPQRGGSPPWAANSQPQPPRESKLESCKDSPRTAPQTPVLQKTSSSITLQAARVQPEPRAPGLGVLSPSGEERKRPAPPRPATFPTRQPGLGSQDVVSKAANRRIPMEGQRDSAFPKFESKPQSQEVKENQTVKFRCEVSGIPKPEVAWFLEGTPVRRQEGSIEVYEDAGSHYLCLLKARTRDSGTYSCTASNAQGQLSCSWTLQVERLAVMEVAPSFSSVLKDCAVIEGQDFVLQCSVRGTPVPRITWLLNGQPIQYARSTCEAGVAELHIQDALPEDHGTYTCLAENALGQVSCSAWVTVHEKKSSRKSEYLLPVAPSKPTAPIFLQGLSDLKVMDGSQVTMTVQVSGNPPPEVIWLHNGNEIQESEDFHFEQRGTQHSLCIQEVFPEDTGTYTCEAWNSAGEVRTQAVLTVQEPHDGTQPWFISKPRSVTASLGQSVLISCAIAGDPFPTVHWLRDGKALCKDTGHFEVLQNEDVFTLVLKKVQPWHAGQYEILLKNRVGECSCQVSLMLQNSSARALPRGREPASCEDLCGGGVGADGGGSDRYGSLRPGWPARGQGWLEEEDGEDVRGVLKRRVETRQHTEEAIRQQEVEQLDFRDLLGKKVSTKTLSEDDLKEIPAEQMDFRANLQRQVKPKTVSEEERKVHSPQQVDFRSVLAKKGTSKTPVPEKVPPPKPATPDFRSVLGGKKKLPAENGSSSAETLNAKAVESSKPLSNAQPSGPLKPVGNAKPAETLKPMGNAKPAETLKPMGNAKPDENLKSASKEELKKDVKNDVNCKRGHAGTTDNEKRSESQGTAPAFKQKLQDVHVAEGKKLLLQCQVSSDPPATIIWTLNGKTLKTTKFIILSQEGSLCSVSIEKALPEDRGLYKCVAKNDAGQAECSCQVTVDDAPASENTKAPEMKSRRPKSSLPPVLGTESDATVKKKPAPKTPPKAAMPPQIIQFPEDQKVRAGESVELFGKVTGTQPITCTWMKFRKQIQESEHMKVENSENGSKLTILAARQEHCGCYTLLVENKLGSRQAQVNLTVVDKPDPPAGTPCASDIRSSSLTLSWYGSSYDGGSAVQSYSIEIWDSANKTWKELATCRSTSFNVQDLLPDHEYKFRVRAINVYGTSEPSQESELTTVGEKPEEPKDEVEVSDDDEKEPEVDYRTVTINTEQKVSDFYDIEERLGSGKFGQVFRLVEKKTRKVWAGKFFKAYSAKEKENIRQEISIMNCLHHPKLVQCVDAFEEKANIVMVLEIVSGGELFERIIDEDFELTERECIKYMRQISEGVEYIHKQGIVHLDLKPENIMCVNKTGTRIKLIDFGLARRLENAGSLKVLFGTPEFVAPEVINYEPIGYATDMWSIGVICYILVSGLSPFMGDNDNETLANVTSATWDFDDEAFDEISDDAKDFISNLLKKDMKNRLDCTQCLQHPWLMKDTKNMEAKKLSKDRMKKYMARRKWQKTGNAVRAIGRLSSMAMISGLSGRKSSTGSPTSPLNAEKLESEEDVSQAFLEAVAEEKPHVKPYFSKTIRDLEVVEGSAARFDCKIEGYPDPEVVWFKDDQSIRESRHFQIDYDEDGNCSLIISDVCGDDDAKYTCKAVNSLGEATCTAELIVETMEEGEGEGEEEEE
Chain of Serine/threonine-protein kinase Sgk3 (Homo sapiens) (Q96BR1 whole entry): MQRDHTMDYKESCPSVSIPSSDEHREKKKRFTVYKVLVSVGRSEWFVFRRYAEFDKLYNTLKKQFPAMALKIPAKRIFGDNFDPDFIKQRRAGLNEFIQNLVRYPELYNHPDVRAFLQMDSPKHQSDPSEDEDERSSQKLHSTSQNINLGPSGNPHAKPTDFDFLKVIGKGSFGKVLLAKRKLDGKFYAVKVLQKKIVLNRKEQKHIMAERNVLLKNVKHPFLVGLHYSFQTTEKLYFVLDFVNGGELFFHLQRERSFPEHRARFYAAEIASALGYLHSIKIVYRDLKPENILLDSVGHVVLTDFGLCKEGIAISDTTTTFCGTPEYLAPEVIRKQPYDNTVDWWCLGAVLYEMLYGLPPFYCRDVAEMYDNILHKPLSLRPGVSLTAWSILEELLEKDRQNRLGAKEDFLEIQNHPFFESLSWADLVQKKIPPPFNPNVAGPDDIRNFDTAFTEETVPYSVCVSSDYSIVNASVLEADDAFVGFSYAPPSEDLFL
Chain of Casein kinase I isoform delta (Homo sapiens) (P48730 whole entry, looked up, canonical isoform): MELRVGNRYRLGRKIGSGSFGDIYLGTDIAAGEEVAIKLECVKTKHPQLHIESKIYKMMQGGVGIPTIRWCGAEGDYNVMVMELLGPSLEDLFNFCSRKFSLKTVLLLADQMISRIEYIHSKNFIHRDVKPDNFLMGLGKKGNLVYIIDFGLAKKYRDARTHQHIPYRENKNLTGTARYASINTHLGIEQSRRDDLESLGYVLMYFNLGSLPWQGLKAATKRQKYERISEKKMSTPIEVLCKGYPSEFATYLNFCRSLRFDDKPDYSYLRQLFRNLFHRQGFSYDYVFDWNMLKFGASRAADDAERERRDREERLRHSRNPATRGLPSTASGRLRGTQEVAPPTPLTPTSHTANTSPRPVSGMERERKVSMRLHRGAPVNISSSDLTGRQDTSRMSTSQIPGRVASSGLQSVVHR
Chain of Mitogen-activated protein kinase 13 (Homo sapiens) (O15264 whole entry): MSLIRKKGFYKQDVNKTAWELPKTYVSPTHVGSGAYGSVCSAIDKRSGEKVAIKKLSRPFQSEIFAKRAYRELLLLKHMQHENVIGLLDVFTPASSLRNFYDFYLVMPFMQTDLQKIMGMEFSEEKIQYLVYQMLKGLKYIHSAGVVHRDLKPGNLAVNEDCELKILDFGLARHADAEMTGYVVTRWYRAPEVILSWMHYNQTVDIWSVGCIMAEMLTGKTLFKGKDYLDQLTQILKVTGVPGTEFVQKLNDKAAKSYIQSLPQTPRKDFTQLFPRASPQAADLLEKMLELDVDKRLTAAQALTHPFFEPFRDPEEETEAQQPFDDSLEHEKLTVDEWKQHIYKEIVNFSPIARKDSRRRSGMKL

Cc1ccc(F)c(S(=O)(=O)Nc2ccc(-c3nc(OC[C@H]4CN(CCCCCCOCCOCCOCC(=O)N[C@H](C(=O)N5C[C@H](O)C[C@H]5C(=O)NCc5ccc(-c6scnc6C)cc5)C(C)(C)C)CCO4)c4cn[nH]c4n3)cc2)c1 showed a % Activity remaining [1] of 111%, a % Activity remaining [2] of 135% and a % Activity remaining [3] of 114%. It also gave a % Activity remaining [4] of 124%, a % Activity remaining [5] of 94.6% and a % Activity remaining [6] of 105%. For the same molecule, the % Activity remaining [7] was 108%, the % Activity remaining [8] was 103% and the % Activity remaining [9] was 93.8%. The % Activity remaining [10] was 104%, the % Activity remaining [11] was 98.9% and the % Activity remaining [12] was 103%. For the same molecule, the % Activity remaining [13] was 88.4%, the % Activity remaining [14] was 94.2% and the % Activity remaining [15] was 99%. For the same molecule, the % Activity remaining [16] was 106%, the % Activity remaining [17] was 116% and the % Activity remaining [18] was 105%. For the same molecule, the % Activity remaining [19] was 105%, the % Activity remaining [20] was 90.3% and the % Activity remaining [21] was 103%. It also gave a % Activity remaining [22] of 112%, a % Activity remaining [23] of 100% and a % Activity remaining [24] of 105%. The % Activity remaining [25] was 52.9%, the % Activity remaining [26] was 103% and the % Activity remaining [27] was 123%. It also gave a Degradation [28] of 0%, a % Activity remaining [29] of 95% and a Degradation [30] of 0%. The % Activity remaining [31] was 106%, the Degradation [32] was 65% and the % Activity remaining [33] was 84.8%.
Work on Cc1ccc(F)c(S(=O)(=O)Nc2ccc(-c3nc(OC[C@H]4CN(CCCCCCOCCOCCOCC(=O)N[C@H](C(=O)N5C[C@@H](O)C[C@H]5C(=O)NCc5ccc(-c6scnc6C)cc5)C(C)(C)C)CCO4)c4cn[nH]c4n3)cc2)c1 yielded a % Activity remaining [1] of 126%, a % Activity remaining [2] of 126% and a % Activity remaining [3] of 98%. It also gave a % Activity remaining [4] of 128%, a % Activity remaining [5] of 93.8% and a % Activity remaining [6] of 108%. It also gave a % Activity remaining [7] of 111%, a % Activity remaining [8] of 101% and a % Activity remaining [9] of 96.6%. For the same molecule, the % Activity remaining [10] was 84.8%, the % Activity remaining [11] was 108% and the % Activity remaining [12] was 99.9%. It also gave a % Activity remaining [13] of 94.2%, a % Activity remaining [14] of 104% and a % Activity remaining [15] of 105%. For the same molecule, the % Activity remaining [16] was 99%, the % Activity remaining [17] was 112% and the % Activity remaining [18] was 99%. It also gave a % Activity remaining [19] of 113%, a % Activity remaining [20] of 91.4% and a % Activity remaining [21] of 121%. It also gave a % Activity remaining [22] of 102%, a % Activity remaining [23] of 108% and a % Activity remaining [24] of 112%. The % Activity remaining [25] was 70.7%, the % Activity remaining [26] was 118% and the % Activity remaining [27] was 108%. The % Activity remaining [29] was 108%, the % Activity remaining [31] was 111% and the Degradation [32] was 0%. It also gave a % Activity remaining [33] of 99.1%.
